Data reported in PubChem BioAssay AID489024 (Sanford-Burnham Center for Chemical Genomics, 2010).
The source made the active and inactive calls.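 Rule for the calls: active = compounds whose mean EC50, the dose giving half the maximal reporter activation, is at or below a set limit; inactive = the rest.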

Each molecule was assayed against CHO-CHOP luciferase reporter, UPR activation, luminescence (assay: activators of PERK-eIF2a-CHOP UPR arm, confirmation, CHO-CHOP cells, luciferase luminescence (AID 489024);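 note: compounds added alone to reporter cells with no tunicamycin stress co-treatment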).

SMILES	EC50
O=C1C(CSCc2ccccc2)NC(=S)N1c1ccccc1 (centres undefined)	inactive
O=c1c2c3c(sc2ncn1/N=C/c1ccc([N+](=O)[O-])o1)CCCC3	7.01 µM
CCOC(=O)C(=Cc1ccc(OCc2ccc([N+](=O)[O-])cc2)c(OC)c1)C(=O)OCC	6.51 µM
CCc1ccc2nc(N(CCCN(C)C)C(=O)c3ccc(S(=O)(=O)N4CCc5ccccc5C4)cc3)sc2c1	7.12 µM
CC(C)c1ccc(N2C(=O)CC(Sc3nc4ccccc4o3)C2=O)cc1 (centres undefined)	15.9 µM
C/C(=N\NC(=O)COc1ccccc1-c1ccccc1)c1ccccn1	6.49 µM
Cc1nc([N+](=O)[O-])c(Br)n1CC(=O)c1ccc(Br)cc1	> 80 µM (inactive)
CC(C)c1ccc(N2C(=O)NC(=O)/C(=C\C=C\c3ccco3)C2=O)cc1	9.13 µM
Cc1ccc(C(C[N+](=O)[O-])n2nc(C)cc2C)cc1 (centres undefined)	9.75 µM
Cc1cccnc1Nc1nc(-c2ccccn2)cs1	0.64 µM
CC(C)N1C(=O)/C(=C/C=C/c2ccco2)C(=O)N(Cc2ccco2)C1=O	8.46 µM
CC1(C)C=Cc2c(c3c(c4c(=O)c(-c5ccc(O)cc5)coc24)OC(C)(C)CC3)O1	14.5 µM
O=C(/C(=C/c1ccc(Cl)cc1)c1nc2ccccc2[nH]1)c1ccccc1	6.57 µM
Cn1c2ccccc2c2cc(/C=N/NC(=O)c3cc(O)ccc3O)ccc21	5.37 µM
C/C(=N\NC(=O)c1ccc(Cl)c(Cl)c1)c1ccccn1	3.26 µM
Cc1cc(C(=O)Cn2ncc(Cl)c(Cl)c2=O)c(C)n1CC(F)(F)F	4.15 µM
CCC(=O)Nc1ccc(C(=O)Cn2ncc(Cl)c(Cl)c2=O)cc1	13.7 µM
C=CCSC(=C(C#N)C#N)c1cc2c([nH]1)CCCC2	> 80 µM (inactive)
Cc1noc2ncnc(Sc3ccc(Cl)cc3)c12	7.1 µM
O=C(Nc1ccc(-c2nc3cc(NC(=O)c4cccs4)ccc3o2)cc1)c1cccs1	6 µM
COc1ccc(/C=C2\CN(Cc3ccccc3)C/C(=C\c3ccc(OC)c(O)c3)C2=O)cc1O	2.75 µM
CC(C)(C)C(=O)N1CCN(c2ccc(NC(=O)c3ccc([N+](=O)[O-])o3)cc2)CC1	0.75 µM
Cc1sc(NC(=O)c2cc(-c3ccc(Cl)cc3)nc3ccccc23)c(C(N)=O)c1C	inactive
O=C(CCl)c1ccc(Cc2ncc(C(F)(F)F)cc2Cl)s1	9.69 µM
O=c1nc(Nc2cccc(Cl)c2)oc2cc(Cl)oc(=O)c12	11.5 µM
Oc1ccc(/C=N/N2CCCCC2)cc1O	inactive
O=C1NC(=O)N(Cc2ccccc2)C(=O)/C1=C\C=C\c1ccco1	> 80 µM (inactive)

SMILES	EC50
O=C(/C(=C\c1ccccc1)c1nc2ccccc2[nH]1)c1ccc(Cl)cc1	8.43 µM
COc1ccc(C2=CC(=O)N(Nc3ccccc3)C2=O)cc1	13.5 µM
O=[N+]([O-])c1ccc(N/N=C/c2cccc(O)c2O)c(S(=O)(=O)N2CCOCC2)c1	6.53 µM
O=C(/C=C\c1ccccc1OC(=O)c1ccccc1F)c1cc2ccccc2o1	14 µM
O=C(Nc1ccc(O)c2c(=O)cc(-c3cccc(Cl)c3)oc12)c1ccccc1Cl	inactive
COc1ccc(C2OC34CCCCC3C(C#N)(C#N)C2(C#N)C(=N)O4)cc1 (centres undefined)	> 80 µM (inactive)
Cc1nc([N+](=O)[O-])c(Br)n1CC(=O)c1ccc2ccccc2c1	> 80 µM (inactive)
COC(=O)C1=C(C)N(c2ccc(C)c(C)c2)/C(=C/c2ccco2)C1=O	8.53 µM
C=C1C(=O)C=C[C@]2(C)C[C@@H]3OC(=O)[C@](C)(O)[C@H]3C[C@@H]12	12.7 µM
Clc1ccc(-c2ccc(/C=N/Nc3nncc(-c4ccccc4)n3)o2)cc1	15.6 µM
O=C(Nc1cccc(S(=O)(=O)N2CCCCC2)c1)c1ccc([N+](=O)[O-])o1	5.08 µM
CCc1cccc2sc(N3CCN(C(=O)c4ccc([N+](=O)[O-])o4)CC3)nc12	10.5 µM
Cc1cc(-n2c(C)cc(C(=O)CCl)c2C)no1	7.75 µM
COc1ccc(-c2cc3ccccc3oc2=O)cc1NC(=S)NC(=O)c1ccc2c(c1)OCCO2	14.9 µM
Cn1nc([N+](=O)[O-])c(C(C#N)c2ccccn2)c(Cl)c1=O (centres undefined)	> 80 µM (inactive)
O=C(C#Cc1ccccc1)c1cccc([N+](=O)[O-])c1	7.41 µM
Cc1ccc2cccc(NS(=O)(=O)c3ccccc3)c2n1	3.53 µM
CCOc1cc(/C=N/Nc2cc(C)nc(-n3nc(C)cc3C)n2)ccc1O	13.6 µM
COC(=O)c1c(NC(=O)CC2Nc3ccccc3NC2=O)sc(C)c1C (centres undefined)	inactive
COc1ccc(N=Cc2c(O)c3ccccc3oc2=O)cc1	8.64 µM
Cc1c(C#N)c(NC(=O)CCl)n(Cc2ccccc2)c1C	14.4 µM
CCOC(=O)c1cnc(-n2nc(C)cc2C)nc1Nc1ccc(N(C)C)cc1	16.7 µM
COc1cc(/C=C/C(=O)c2ccc3c(c2)OCCO3)cc(Br)c1OCC(=O)N(C)C	7 µM
O=C(N/N=C/c1ccccn1)c1cc(-c2ccc(Cl)cc2)nc2ccccc12	2.51 µM
CCCCNC1C(CC)C(CCC)C(C#N)(C#N)C1(C#N)C#N (centres undefined)	> 80 µM (inactive)
Cc1cccc(Nc2nc3c(S(=O)(=O)c4ccccc4)nnn3c3ccccc23)c1C	inactive
COc1ccc(NC(=O)c2sc3nc(N4CCOCC4)c4c(c3c2N)CC(C)(C)OC4)c(OC)c1	> 80 µM (inactive)
